Tests used:
CdFOMT5 [1] = target: T1, CdFOMT5 (Citrus depressa, UniProt A0A125T1T5); assay: HPLC of methylated product; assay type: biochemical; settings: 500 uM SAM, 100 uM substrate, 50 mM potassium phosphate pH 7.0, 30 °C, 1 h
T1 construct: gene FOMT5; full-length cDNA from fruit pericarp, C-terminal 6x His tag kept, pET21b(+) BamHI/SalI, E. coli BL21(DE3), Ni-Sepharose
T1 sequence (A0A125T1T5 1-353): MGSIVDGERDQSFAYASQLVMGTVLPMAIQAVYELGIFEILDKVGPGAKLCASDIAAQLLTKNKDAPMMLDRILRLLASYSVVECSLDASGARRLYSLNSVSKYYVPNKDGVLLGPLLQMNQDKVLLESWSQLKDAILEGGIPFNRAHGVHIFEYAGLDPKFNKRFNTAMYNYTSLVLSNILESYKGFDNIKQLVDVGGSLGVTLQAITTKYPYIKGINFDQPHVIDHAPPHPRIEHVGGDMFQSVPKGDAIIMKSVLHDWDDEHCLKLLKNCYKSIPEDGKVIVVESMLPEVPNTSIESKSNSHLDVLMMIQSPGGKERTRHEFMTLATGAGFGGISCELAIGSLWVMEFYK

CdFOMT5 [2] = target: T1, CdFOMT5; assay: HPLC and LC-MS of O-methylated products; assay type: biochemical; settings: 500 uM SAM, 100 uM substrate, 50 mM potassium phosphate pH 7.0, 30 °C, 1 h

Row | SMILES | HPLC of methylated product (CdFOMT5 [1]) | HPLC and LC-MS of O-methylated products (CdFOMT5 [2])
1 | O=c1c(O)c(-c2ccccc2)oc2ccccc12 [3-hydroxyflavone] | the highest activity was observed for 3-hydroxyflavone (flavonol) based on the peak area | 
2 | O=c1c(O)c(-c2ccc(O)c(O)c2)oc2cc(O)cc(O)c12 [S, quercetin] |  | several peaks corresponding to O-methylated products were detected by HPLC analysis
